Source: patent US20070207967A1, “Peptide Inhibitors of Matrix Metalloproteinase Activity” (CTT CANCER TARGETING TECHNOLOGIES OY, priority 2004, published 2007)
One block for each compound: values may come before it.

What was measured:
uPAR [1] = assay: uPAR cleavage on HT1080 cells; assay type: cell-based, human; settings: for Inhibition of uPAR cleavage: HT1080, InhI 20 μM, aprotinin 25 μg/ml, benzamidine 20 μM, 48 h
Description: (§1) uPAR clevage. […] Chymotrypsin cleavage was done without aprotinin.

uPAR [2] = assay: uPAR cleavage on THP-1 cells; assay type: cell-based, human; settings: InhI 20 μM, CTT 200 μM, aprotinin 25 μg/ml
Description: as §1

HT1080 cells = assay: Pericellular proteolysis (gelatinolysis) of HT1080 cells; assay type: cell-based, human; settings: HT1080, 48 h, PDBu, fibronectin/FITC-labelled gelatin coating
Procedure: Pericellular proteolysis. Microtiter wells were coated with a mixture of fibronectin (10 μg/ml) and FITC-labelled gelatin (100 μg/ml) followed by saturation with 1% BSA in PBS. HT1080 cells (50 000 in 100 μl 0.1% BSA/DMEM) were incubated in the presence of 20 nM PDBu (4β-phorbol-12,13-dibutyrate, SigmaAldrich) and the peptides or the MMP-2/MMP-9 selective inhibitor InhI (Calbiochem). As a control non-activated cells and medium without the cells were used. Gelatinolysis after 48 hours was measured as the increase of fluorescence from a 50 μl aliquot of the conditioned medium using Wallac Victor^2 reader.

trypsin-activated MMP-9 = trypsin-activated MMP-9 (Homo sapiens, UniProt P14780); assay: Gelatinase inhibition assay (gelatin degradation), MMP-9; assay type: biochemical; settings: biotinylated gelatin substrate
trypsin-activated MMP-9, sequence (P14780 107-707 limits assumed): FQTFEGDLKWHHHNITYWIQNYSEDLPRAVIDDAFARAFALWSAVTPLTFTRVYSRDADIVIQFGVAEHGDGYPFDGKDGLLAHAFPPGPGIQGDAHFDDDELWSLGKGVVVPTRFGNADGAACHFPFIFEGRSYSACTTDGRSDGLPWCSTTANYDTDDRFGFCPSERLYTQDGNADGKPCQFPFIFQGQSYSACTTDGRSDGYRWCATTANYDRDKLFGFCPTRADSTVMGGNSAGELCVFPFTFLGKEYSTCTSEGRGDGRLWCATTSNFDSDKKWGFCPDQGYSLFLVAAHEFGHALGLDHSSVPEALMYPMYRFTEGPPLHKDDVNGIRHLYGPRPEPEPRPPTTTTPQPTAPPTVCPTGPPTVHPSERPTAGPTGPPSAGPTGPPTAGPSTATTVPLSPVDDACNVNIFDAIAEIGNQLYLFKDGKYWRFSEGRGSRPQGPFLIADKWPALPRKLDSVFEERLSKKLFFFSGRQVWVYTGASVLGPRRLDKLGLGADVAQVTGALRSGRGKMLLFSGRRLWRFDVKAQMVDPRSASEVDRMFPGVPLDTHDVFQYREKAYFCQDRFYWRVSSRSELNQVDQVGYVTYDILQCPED
Procedure: (§2) Gelatinase inhibition assay. Inhibition of aminophenylmercuric acetate (APMA)-activated MMP-2 and trypsin-activated MMP-9 was performed using biotinylated gelatin as a substrate (15).

pro-MMP-9 [3] = target: T1, pro-MMP-9 (Homo sapiens, UniProt P14780); assay: Pro-MMP-9 activation in THP-1 cells, zymography; assay type: cell-based; settings: THP-1, pro-MMP-3 and plasminogen, peptides 200 μM
T1 sequence (P14780 20-707 limits assumed): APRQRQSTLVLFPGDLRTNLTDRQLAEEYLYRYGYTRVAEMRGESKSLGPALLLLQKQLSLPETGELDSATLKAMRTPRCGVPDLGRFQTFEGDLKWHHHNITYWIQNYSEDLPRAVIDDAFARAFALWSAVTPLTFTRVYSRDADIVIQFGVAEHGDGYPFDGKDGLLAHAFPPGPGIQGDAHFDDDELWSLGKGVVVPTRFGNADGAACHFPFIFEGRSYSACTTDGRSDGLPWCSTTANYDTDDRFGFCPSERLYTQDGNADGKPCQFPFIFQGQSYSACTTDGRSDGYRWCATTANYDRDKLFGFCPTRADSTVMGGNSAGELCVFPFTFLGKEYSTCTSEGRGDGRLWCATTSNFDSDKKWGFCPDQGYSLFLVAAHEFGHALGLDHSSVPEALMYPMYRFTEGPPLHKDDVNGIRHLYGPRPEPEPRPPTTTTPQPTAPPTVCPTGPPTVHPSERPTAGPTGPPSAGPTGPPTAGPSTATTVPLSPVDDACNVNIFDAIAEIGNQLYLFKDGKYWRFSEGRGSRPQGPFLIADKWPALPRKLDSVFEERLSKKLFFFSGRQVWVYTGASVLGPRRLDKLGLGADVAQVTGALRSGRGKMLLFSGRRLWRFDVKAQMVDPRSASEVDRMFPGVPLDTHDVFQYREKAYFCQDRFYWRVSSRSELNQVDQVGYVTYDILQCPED
Procedure: Activation of MMP-9. THP-1 cells (40 000/100 μl) or confluent HT1080 cells were incubated for 16 h in the presence or absence of 2.5 μg/ml plasminogen, 0.5 μg/ml pro-MMP-3 (Oncogene Research Products), 40 nM PDBu, and the peptides at a 200 μM concentration unless otherwise indicated. Aliquots of the conditioned media were analyzed by gelatin zymography (9). […] The samples were analyzed by gelatin zymography.

CBD [4] = target: T2, CBD (Homo sapiens, UniProt P14780); assay: CBD binding to fibronectin and vitronectin, solid phase; settings: 20 μM peptides, biotinylated CBD
fibronectin, sequence (P02751 306-608 limits assumed): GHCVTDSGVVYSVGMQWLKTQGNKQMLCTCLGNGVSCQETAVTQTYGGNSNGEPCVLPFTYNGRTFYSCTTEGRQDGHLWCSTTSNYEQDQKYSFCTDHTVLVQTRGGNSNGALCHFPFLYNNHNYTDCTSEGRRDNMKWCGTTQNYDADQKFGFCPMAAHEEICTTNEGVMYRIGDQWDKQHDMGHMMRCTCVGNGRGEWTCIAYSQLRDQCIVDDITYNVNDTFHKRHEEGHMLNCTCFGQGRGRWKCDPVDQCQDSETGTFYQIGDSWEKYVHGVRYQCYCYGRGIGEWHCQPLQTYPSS
T2 construct: CBD (amino acids Gly^204-Gly^373) was amplified from MMP-9 cDNA; made in house; host or cells: E. coli
T2 sequence (P14780 223-392 limits assumed): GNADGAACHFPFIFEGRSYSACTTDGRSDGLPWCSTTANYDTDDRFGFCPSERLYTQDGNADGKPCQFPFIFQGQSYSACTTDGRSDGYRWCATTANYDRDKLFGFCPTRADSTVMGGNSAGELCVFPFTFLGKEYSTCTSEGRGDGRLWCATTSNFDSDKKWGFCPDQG
Procedure: (§3) Gelatin and CBD binding assays. Recombinant CBD or human plasma fibronectin (Calbiochem) (0.2 μg/ml in TBS) was immobilized in microtiter wells. The wells were saturated with 1% BSA-PBST. Biotinylated gelatin (0.2 μg/ml in 1% BSA-PBST) was added with or without peptides at the concentrations indicated or with an excess of unlabelled gelatin (10 μg/ml) and allowed to bind for 1 h. Bound gelatin was detected with streptavidin-peroxidase. CBD binding to immobilized fibronectin, the 110-kDa fragment of fibronectin (Upstate Biotechnology) or urea-denaturated human plasma vitronectin (17) (1 μg/well) was studied using biotinylated CBD (5 μg/ml) in 1% BSA-PBST in the presence or absence of 20 μM peptides.

THP-1 monocytic cells = assay: THP-1 cell migration on GST-LLG-C4; assay type: cell-based, human; settings: GST-LLG-C4 substratum, 16 h
Procedure: (§4) Cell migration and invasion. The cell migration assay was conducted using transwell migration chambers (8 μm pore size, Costar) in 10% serum-containing medium (2,14). Briefly, the membranes were coated on both sides with 40 μg/ml GST or with the β2 integrin ligand peptide […]-GST fusion (GST-LLG-C4) and blocked with complete medium. THP-1 cells (50 000/100 μl) were preincubated with the peptides for 1 h in serum-containing medium. The cells were allowed to migrate for 16 h and were then stained with crystal violet and counted (14). The HT1080 (20 000 cells/I100 μl) invasion assay was performed as the THP-1 migration, except that matrigel coated transwells (BD Biosciences) were used.

[5] = target: T3, aminophenylmercuric acetate (APMA)-activated MMP-2 (Homo sapiens, UniProt P08253); assay: Gelatinase inhibition assay (gelatin degradation), MMP-2; assay type: biochemical; settings: biotinylated gelatin substrate
T3 sequence (P08253 110-660): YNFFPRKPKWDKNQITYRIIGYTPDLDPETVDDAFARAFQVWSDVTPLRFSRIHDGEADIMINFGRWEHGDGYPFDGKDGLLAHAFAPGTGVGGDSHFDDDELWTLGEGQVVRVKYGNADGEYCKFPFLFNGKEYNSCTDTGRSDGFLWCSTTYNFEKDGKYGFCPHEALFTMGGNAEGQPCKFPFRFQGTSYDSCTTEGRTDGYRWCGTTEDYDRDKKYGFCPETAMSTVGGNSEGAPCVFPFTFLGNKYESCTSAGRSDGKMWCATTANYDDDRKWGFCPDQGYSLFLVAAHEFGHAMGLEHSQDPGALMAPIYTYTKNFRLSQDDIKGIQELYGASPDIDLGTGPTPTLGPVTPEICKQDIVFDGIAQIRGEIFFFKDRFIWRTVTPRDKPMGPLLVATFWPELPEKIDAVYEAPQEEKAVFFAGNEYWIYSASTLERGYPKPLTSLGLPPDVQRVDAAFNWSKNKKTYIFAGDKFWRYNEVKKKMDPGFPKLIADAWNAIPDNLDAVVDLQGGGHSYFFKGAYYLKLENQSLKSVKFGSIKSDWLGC
Procedure: as §2

HT1080 fibrosarcoma = assay: HT1080 invasion through matrigel; assay type: cell-based, human
Procedure: as §4

gelatinase [6] = assay: Gelatin degradation assay, gelatinase not specified; assay type: biochemical
Procedure: as §2

CBD [7] = target: T2, CBD; assay: Gelatin binding to immobilized CBD; settings: biotinylated gelatin
Procedure: as §3

pro-MMP-9 [8] = target: T1, pro-MMP-9; assay: Phage binding to pro-MMP-9 with competitors; settings: competitor peptides 20 μM, gelatin 2.5 μg/ml; for Binding of the CRV-phage to pro-MMP-9, competition: TIMP-1 2.5 μg/ml
Procedure: (§5) Phage display. Phage display selections were made using random peptide libraries CX7-10C and X9-10 (13). Purified human pro-MMP-9 (9) or recombinant MMP-9 C domain (2 μg/ml) was immobilized on microtiter wells and the wells were blocked with BSA. The phage were added in 50 mM Hepes (pH 7.5)/5 mM CaCl2/1 μM ZnCl2/150 mM NaCl/2% BSA. After three rounds of selection the phage sequences were determined (14). The phage binding specificity was tested with pro-MMPs or the recombinant domains (20 ng/well). The phage (10^8 transducing units/well) were allowed to bind in the absence or presence of competitor peptides (20 μM), gelatin (2.5 μg/ml) or TIMP-1 (2.5 μg/ml, Calbiochem) followed by washings with PBS/0.05% Tween20 (PBST). The phage were detected with a peroxidase-conjugated anti-phage antibody (Amersham Biosciences).

αM integrin I domain = αM integrin I domain (Homo sapiens, UniProt P11215); assay: Pro-MMP-9 binding to αM integrin I domain
αM integrin I domain, sequence (P11215 150-328 limits assumed): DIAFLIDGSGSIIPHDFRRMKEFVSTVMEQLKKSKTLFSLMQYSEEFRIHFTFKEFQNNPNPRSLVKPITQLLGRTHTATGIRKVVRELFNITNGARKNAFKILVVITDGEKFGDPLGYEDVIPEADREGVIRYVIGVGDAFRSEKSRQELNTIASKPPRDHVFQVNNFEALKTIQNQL
Procedure: Pro-MMP-9 and gelatin binding to leukocyte αM integrin. Pro-MMP-9 binding to the αM I domain in the presence of peptides was studied as described (12). Gelatin binding to the pro-MMP-^9/αMβ2 integrin complex was studied by immobilizing the integrin αMβ2 (12) or αIIbβ3 as a control (Enzyme Research Laboratories, South Bend, Ind.) (1 μg/well) in TBS/1 mM CaCl2/1 mM MgCl2 followed by saturation of the wells with 1% BSA in PB ST. Pro-MMP-9 (100 ng/well) was incubated for 2 h and the unbound pro-MMP-9 was washed away. Biotinylated gelatin (2.5 μg/ml) was allowed to bind for 30 min at room temperature. Bound gelatin was detected with streptavidin-peroxidase.

fibronectin = assay: Gelatin binding to fibronectin; parameters: species or system human; settings: data not shown
Procedure: as §3

gelatinase [9] = settings: 100 μM concentration; ref (15); cited from earlier work
MMP-9 C domain = target: T4, MMP-9 C domain (Homo sapiens, UniProt P14780); assay: CRV phage binding to recombinant MMP-9 C domain; settings: TIMP-1 2.5 μg/ml
T4 construct: MMP-9 (Asp^494-Asp^688) were expressed as described (16); made in house; host or cells: E. coli (β5 fragment)
T4 sequence (P14780 513-707 limits assumed): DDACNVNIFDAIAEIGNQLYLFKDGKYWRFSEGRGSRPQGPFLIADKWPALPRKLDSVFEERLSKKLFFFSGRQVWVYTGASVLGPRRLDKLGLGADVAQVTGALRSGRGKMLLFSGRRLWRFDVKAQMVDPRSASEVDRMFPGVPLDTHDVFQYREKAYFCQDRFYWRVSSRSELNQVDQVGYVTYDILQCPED
Procedure: as §5
Expression of the MMP and integrin domains. CBD (amino acids Gly^204-Gly^373) was amplified from MMP-9 cDNA with the oligonucleotides 5′-[…]-3′ and 5′-[…]-3′ incorporating NdeI and PstI restriction sites. The PCR product was ligated into pTWIN vector (New England Biolabs). CBD was expressed in E. coli and purified using gelatin-sepharose (Amersham Biosciences). For some experiments, CBD was biotinylated with sulfo-NHS-LC-biotin (Pierce). The C-terminal domains of MMP-2 (Glu^438-Cys^631) and MMP-9 (Asp^494-Asp^688) were expressed as described (16). […]

CBD [10] = target: T2, CBD; assay: Pepspot membrane assay of CBD binding; settings: 0.2 μg/ml biotinylated CBD
Procedure: Peptide synthesis. The phage peptides were initially prepared in a recombinant form using intein fusions (12,15). Chemical peptide synthesis was done using Fmoc-chemistry and the purity and integrity of the peptides was verified by mass spectroscopy (15). The peptides were dissolved in water, except the CRV and DDGW peptides, which were dissolved in 50 mM NaOH at a 10 mM concentration and then diluted into PBS to neutralize the pH. The […] and […] peptides were synthesized on a cellulose membrane. The membrane was blocked with 3% BSA in TBS/0.05% Tween 20, and incubated with 0.2 μg/ml biotinylated CBD. Bound CBD was detected using peroxidase-conjugated streptavidin (1:10 000 dilution, Pierce) and chemiluminescence detection.

Inhibition of MMP-9 activity in gelatin degradation assay (trypsin-activated MMP-9): no effect
Inhibition of MMP-2 activity in gelatin degradation assay [5]: no effect
Compound: ADGACPSYGPRFGCGAAG [scr. PPC, scrambled control peptide of PPC, reference compound]

Inhibition of gelatin binding to immobilized CBD (CBD [7]): not
Binding of PPC peptide-bearing phage to pro-MMP-9, competition (pro-MMP-9 [8]): not
Binding of the CRV-phage to pro-MMP-9, competition (pro-MMP-9 [8]): not
Compound: CTTHWGFTLC [reference compound]
Inhibition of THP-1 migration (THP-1 monocytic cells): inhibitory effect
Inhibition of HT1080 invasion into matrigel (HT1080 fibrosarcoma; 200 μM concentration): 50%
Inhibition of gelatin degradation (gelatinase [9]): completely inhibits
Inhibition of uPAR cleavage (uPAR [2]): inhibited
Inhibition of pericellular gelatinolysis (HT1080 cells): inhibited

Binding of the CRV-phage to pro-MMP-9, competition (pro-MMP-9 [8]): could not compete
CRV phage binding to the MMP-9 C domain, competition (MMP-9 C domain): could not compete
Compound: TIMP-1: tissue inhibitor of MMPs (Calbiochem)

Binding of biotinylated CBD to peptide on pepspot membrane (CBD [10]): bound
Compound: TTPNSLLVSWQPPRARIT [PPC-like fibronectin peptide]

Binding of PPC peptide-bearing phage to pro-MMP-9, competition (pro-MMP-9 [8]): inhibited
Binding of the CRV-phage to pro-MMP-9, competition (pro-MMP-9 [8]): not
Compound: gelatin

Second part, the compound before the results:

Compound: O=C(O)[C@@H](Cc1ccccc1)NS(=O)(=O)c1ccc(-c2ccccc2)cc1 [InhI]
Level of cell surface-bound uPA (uPAR [1]; HT1080, InhI 20 μM): reduced
Inhibition of uPAR cleavage (uPAR [1]): inhibited uPAR cleavage
Inhibition of uPAR cleavage (uPAR [2]): inhibited
Inhibition of pericellular gelatinolysis (HT1080 cells): inhibited

Compound: N=C(N)c1ccccc1 [benzamidine]
Inhibition of uPAR cleavage (uPAR [1]): not

Compound: ADGACGYGRFSPPCGAAG
Inhibition of MMP-9 activity in gelatin degradation assay (trypsin-activated MMP-9): inhibited
Effect on pro-MMP-9 activation (pro-MMP-9 [3]): augmented
Inhibition of CBD binding to fibronectin and vitronectin (CBD [4]): inhibited
Inhibition of THP-1 migration (THP-1 monocytic cells): inhibitory effect
Inhibition of MMP-2 activity in gelatin degradation assay [5]: inhibited
IC50 (HT1080 fibrosarcoma; matrigel, read-out: Concentration required to achieve the same efficacy (50% inhibition of HT1080 invasion)): 500 µM
Gelatinase inhibitor strength relative to CTT (gelatinase [6]): weaker gelatinase inhibitor than CTT
Inhibition of gelatin binding to immobilized CBD (CBD [7]): inhibited gelatin binding to immobilized CBD in a dose dependent manner
Binding of PPC peptide-bearing phage to pro-MMP-9, competition (pro-MMP-9 [8]): inhibited
Binding of the CRV-phage to pro-MMP-9, competition (pro-MMP-9 [8]): not
Effect on interaction of MMP-9 with the leukocyte αM integrin I domain (αM integrin I domain): do not affect
Higher pro-MMP-9 binding to the I domain in the presence of peptide (αM integrin I domain; typically): 20-50%
Effect on gelatin binding to fibronectin (fibronectin): no effect
Inhibition of pericellular gelatinolysis (HT1080 cells): inhibited

Compound: aprotinin
Inhibition of uPAR cleavage (uPAR [1]): not
Inhibition of uPAR cleavage (uPAR [2]): not
